Like-named read-outs stand apart in the source and are kept apart here.
Legend:
[1] = human, 6 h, 1 μM
Method: (§3) Analysis of Plasma Protein Binding and Stability in Human and Mouse Blood Plasma by Equilibrium Dialysis. Frozen plasma (stored at −80° C.) was thawed immediately in a 37° C. water bath. The working solutions of test compound and control compound were prepared in DMSO at 200 μM concentration, and the working solutions were spiked into plasma. The final concentration of compound was 1 μM. The final concentration of DMSO was 0.5%. Ketoconazole was used as positive control in the assay. The dialysis membranes were soaked in ultrapure water for 60 min to separate strips, then in 20% ethanol for 20 min, and then finally in dialysis buffer for 20 min. For equilibrium dialysis, each cell contained plasma sample (150 μL) and was dialyzed against an equal volume of dialysis buffer (PBS). The assay was performed in duplicate. The dialysis plate was sealed and incubated at 37° C. with 5% CO2 at 100 rpm for 6 h. At the end of incubation, samples (50 μL) from both buffer and plasma chambers were transferred to wells of a 96-well plate. Plasma (50 μL) was added to each buffer sample and an equal volume of PBS was added to the collected plasma sample. Cold acetonitrile (400 μL) containing internal standards (IS, 100 nM alprazolam, 200 nM labetalol, 200 nM imipramine and 2 μM ketoprofen) was added to precipitate protein and release compounds. Samples were vortexed for 2 min and centrifuged for 30 min at 3,220 g. An aliquot (100 μL) of the supernatant was diluted with ultra-pure H2O (100 μL), and the mixture was used for LC-MS/MS analysis. For stability determination in plasma, a spiked plasma sample (50 μL) was transferred to a new plate and incubated at 37° C., 5% CO2 for 0 and 6 h. At designated time points, PBS (50 μL) was added and mixed thoroughly, followed by the addition of room temperature quench solution [400 μL of acetonitrile containing internal standards (IS, 100 nM alprazolam, 200 nM labetalol, 200 nM imipramine and 2 μM ketoprofen)] to precipitate protein and release compounds. Samples were vortexed for 2 min and centrifuged for 30 min at 3,220 g. An aliquot (400 μL) of the supernatant was diluted by ultra-pure H2O, and the mixture was used for LC-MS/MS analysis. The concentrations of test compounds in the buffer and plasma chambers were determined from peak area ratios.

HCT-116 (Colon) = experiment: NCI-60 cytotoxicity assay; assay type: cell-based, human; settings: Colon HCT-116, 48 h, read-out: Cytotoxicity GI50
How it was run: (§1)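 Sulforhodamine B staining read-out: percentage growth is plotted against the common logarithm of concentration, from which GI50 is derived. Treatment lasts 48 h at five doses between 100 μM and 10 nM.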

DU-145 (Prostate) = experiment: NCI-60 cytotoxicity assay; assay type: cell-based, human; settings: Prostate DU-145, 48 h, read-out: Cytotoxicity GI50
How it was run: as §1

OVCAR-3 (Ovarian) = experiment: NCI-60 cytotoxicity assay; assay type: cell-based, human; settings: Ovarian OVCAR-3, 48 h, read-out: Cytotoxicity GI50
How it was run: as §1

SN12C (Renal) = experiment: NCI-60 cytotoxicity assay; assay type: cell-based, human; settings: Renal SN12C, 48 h, read-out: Cytotoxicity GI50
How it was run: as §1

HOP-62 (Lung) = experiment: NCI-60 cytotoxicity assay; assay type: cell-based, human; settings: Lung HOP-62, 48 h, read-out: Cytotoxicity GI50
How it was run: as §1

UACC-62 (Melanoma) = experiment: NCI-60 cytotoxicity assay; assay type: cell-based, human; settings: Melanoma UACC-62, 48 h, read-out: Cytotoxicity GI50
How it was run: as §1

MCF7 (Breast) = experiment: NCI-60 cytotoxicity assay; assay type: cell-based, human; settings: Breast MCF7, 48 h, read-out: Cytotoxicity GI50
How it was run: as §1

in vivo = assay type: in vivo
γ-H2AX [2] = experiment: Western blot of RS4;11 tumor xenograft tissue; assay type: in vivo, human
NCI-60 cancer cell lines = experiment: NCI-60 cytotoxicity assay, MGM; assay type: cell-based; settings: Homo sapiens; read-out: MGM (average GI50 across NCI-60 panel)
How it was run: as §1

SF-539 (CNS) = experiment: NCI-60 cytotoxicity assay; assay type: cell-based; settings: Homo sapiens; CNS SF-539, 48 h; read-out: Cytotoxicity GI50
How it was run: as §1

c-Myc [3] = experiment: Western blot of RS4;11 tumor xenograft tissue; assay type: in vivo, human
From the text: (§2) In several cases, the levels of c-Myc were more greatly depressed at the lower dose level. For examples, see the 9-hour data for G104 in Tables 17 and 18 and the 6-hour data in Table 19. […] Overall, there are many unexpected and unexplained aspects of the data in Tables 17-19, which are highly variable and also highly dependent on cell type. In particular, drug-induced increases in c-Myc expression relative to control and the larger changes in c-Myc expression seen at lower vs. higher doses are counterintuitive and unexplained.

γ-H2AX [4] = experiment: Western blot of RD-ES tumor xenograft tissue; assay type: in vivo, human
From the text: as §2

c-Myc [5] = experiment: Western blot of RD-ES tumor xenograft tissue; assay type: in vivo, human
From the text: as §2

c-Myc [6] = experiment: Western blot of MOLT-4 tumor xenograft tissue; assay type: in vivo, human
[7] = mouse, 6 h, 1 μM
Method: as §3

γ-H2AX [8] = experiment: Western blot of MOLT-4 tumor xenograft tissue; assay type: in vivo, human
From the text: as §2

[9] = assay type: in vivo
[10] = Maximum tolerated dose determination in NOD SCID mice; assay type: in vivo; settings: QD x 5; for Body Weight %: 7 days after first dose
Method: Maximum Tolerated Dose Determinations. […]. […] Experiments involving 100 mg/kg doses of all three drugs were terminated after one day because of toxicity, while the study involving 50 mg/kg dose of G105 was also halted after one day (FIG. 12). Similarly, the investigation with a 40 mg/kg dose of G105 was discontinued after two days (FIG. 13).

COc1cc2c3c(n(CCCNCCO)c(=O)c2cc1OC)-c1nc2c(cc1C3=O)OCO2 [G105, 6-(3-((2-Hydroxyethyl)amino)propyl)-2,3-dimethoxy-5H-[1,3]dioxolo[4″,5″:5′,6′]pyrido[3′,2′:4,5]cyclopenta[1,2-c]isoquinoline-5,12(6H)-dione]
% Recovery [1]: 99.38% | % Bound ([1]; plasma): 80.88% | GI50 (HCT-116 (Colon)): 1250 nM | GI50 (HCT-116 (Colon); Homo sapiens): 1250 nM | GI50 (DU-145 (Prostate); Homo sapiens): 2710 nM | GI50 (DU-145 (Prostate)): 2710 nM | GI50 (OVCAR-3 (Ovarian); Homo sapiens): 5650 nM | GI50 (OVCAR-3 (Ovarian)): 5650 nM | GI50 (SN12C (Renal); Homo sapiens): 3940 nM | GI50 (SN12C (Renal)): 3940 nM | GI50 (HOP-62 (Lung); Homo sapiens): 420 nM | GI50 (HOP-62 (Lung)): 420 nM | GI50 (UACC-62 (Melanoma); Homo sapiens): 2380 nM | GI50 (UACC-62 (Melanoma)): 2380 nM | GI50 (MCF7 (Breast)): 260 nM | GI50 (MCF7 (Breast); Homo sapiens): 260 nM | Mean Tumor/Plasma Ratio (in vivo; RS4;11, 3 h, IV 10 mg/kg): 62.3 ± 17.7 | Mean Tumor/Plasma Ratio (in vivo; RS4;11, 3 h, IV 20 mg/kg): 111 ± 18 | Mean Tumor/Plasma Ratio (in vivo; RS4;11, 9 h, IV 10 mg/kg): 185 ± 25 | Mean Tumor/Plasma Ratio (in vivo; RS4;11, 9 h, IV 20 mg/kg): 383 ± 183 | γ-H2AX/GAPDH, % Relative to Vehicle (γ-H2AX [2]; RS4;11, IV 10 mg/kg, 3 h): 67.00 ± 2.90% | γ-H2AX/GAPDH, % Relative to Vehicle (γ-H2AX [2]; RS4;11, IV 10 mg/kg, 9 h): 166.37 ± 40.45% | γ-H2AX/GAPDH, % Relative to Vehicle (γ-H2AX [2]; RS4;11, IV 20 mg/kg, 3 h): 219.29 ± 82.49% | γ-H2AX/GAPDH, % Relative to Vehicle (γ-H2AX [2]; RS4;11, IV 20 mg/kg, 9 h): 540.94 ± 97.90% | GI50 (NCI-60 cancer cell lines): 2950 nM | GI50 (SF-539 (CNS)): 1000 nM | c-Myc/GAPDH, % Relative to Vehicle (c-Myc [3]; RS4;11, IV 10 mg/kg, 3 h): 102.74 ± 3.45% | c-Myc/GAPDH, % Relative to Vehicle (c-Myc [3]; RS4;11, IV 10 mg/kg, 9 h): 74.98 ± 3.52% | c-Myc/GAPDH, % Relative to Vehicle (c-Myc [3]; RS4;11, IV 20 mg/kg, 3 h): 100.30 ± 16.76% | c-Myc/GAPDH, % Relative to Vehicle (c-Myc [3]; RS4;11, IV 20 mg/kg, 9 h): 80.45 ± 3.93% | γ-H2AX/GAPDH, % Relative to Vehicle (γ-H2AX [4]; IV 10 mg/kg, 3 h): 145.80 ± 32.79% | γ-H2AX/GAPDH, % Relative to Vehicle (γ-H2AX [4]; IV 10 mg/kg, 6 h): 111.73 ± 14.44% | γ-H2AX/GAPDH, % Relative to Vehicle (γ-H2AX [4]; IV 20 mg/kg, 3 h): 134.62 ± 18.03% | γ-H2AX/GAPDH, % Relative to Vehicle (γ-H2AX [4]; IV 20 mg/kg, 6 h): 109.81 ± 27.72% | c-Myc/GAPDH, % Relative to Vehicle (c-Myc [5]; IV 10 mg/kg, 3 h): 128.18 ± 13.67% | c-Myc/GAPDH, % Relative to Vehicle (c-Myc [5]; IV 10 mg/kg, 6 h): 69.45 ± 15.02% | c-Myc/GAPDH, % Relative to Vehicle (c-Myc [5]; IV 20 mg/kg, 3 h): 154.98 ± 17.80% | c-Myc/GAPDH, % Relative to Vehicle (c-Myc [5]; IV 20 mg/kg, 6 h): 71.97 ± 14.55% | c-Myc/GAPDH, % Relative to Vehicle (c-Myc [6]; MOLT-4, IV 10 mg/kg, 3 h): 110.56 ± 4.90% | c-Myc/GAPDH, % Relative to Vehicle (c-Myc [6]; MOLT-4, IV 10 mg/kg, 9 h): 84.53 ± 6.26% | c-Myc/GAPDH, % Relative to Vehicle (c-Myc [6]; MOLT-4, IV 20 mg/kg, 3 h): 96.74 ± 9.71% | c-Myc/GAPDH, % Relative to Vehicle (c-Myc [6]; MOLT-4, IV 20 mg/kg, 9 h): 83.89 ± 10.06% | % Recovery [7]: 90.43% | % Bound ([7]; plasma): 79.41% | γ-H2AX/GAPDH, % Relative to Vehicle (γ-H2AX [8]; MOLT-4, IV 10 mg/kg, 3 h): 60.98 ± 8.93% | γ-H2AX/GAPDH, % Relative to Vehicle (γ-H2AX [8]; MOLT-4, IV 10 mg/kg, 9 h): 172.03 ± 47.41% | γ-H2AX/GAPDH, % Relative to Vehicle (γ-H2AX [8]; MOLT-4, IV 20 mg/kg, 3 h): 56.62 ± 11.87% | γ-H2AX/GAPDH, % Relative to Vehicle (γ-H2AX [8]; MOLT-4, IV 20 mg/kg, 9 h): 109.66 ± 28.34% | Mean Tumor/Plasma Ratio ([9]; MOLT-4, 3 h, IV 10 mg/kg): 50 ± 13.4 | Mean Tumor/Plasma Ratio ([9]; MOLT-4, 9 h, IV 10 mg/kg): 357 ± 180 | Mean Tumor/Plasma Ratio ([9]; MOLT-4, 9 h, IV 20 mg/kg): 326 ± 102 | Body Weight % ([10]; 5 mg/Kg IV): 97.2% | Body Weight % ([10]; 10 mg/Kg IV): 95.5% | Body Weight % ([10]; 15 mg/Kg IV): 79.2% | Body Weight % ([10]; 20 mg/Kg IV): 82% | Body Weight % ([10]; 30 mg/Kg IV): 74.7% | Maximum tolerated dose (MTD) ([10]; NOD SCID mice, IV, body weight % ≥80%): 20 mg/kg

Source: US20240287089A1, “Preparation and Uses of 7-Azaindenoisoquinolines” (Purdue Research Foundation, priority 0001, published 2024)
